Assay results: US9145414B2, “1,2,4-triazine-6-carboxamide derivative” (TAIHO PHARMACEUTICAL CO., LTD., priority 2011, dated 2015)
Where two headings read alike, the source gives them in different places.

Assays:
human Syk protein = human Syk protein (Homo sapiens (Human), UniProt P43405); assay: Syk kinase inhibition test; assay type: biochemical; details: read-out: SYK inhibitory activity IC50
Procedure: Finally, phosphorylated peptides and non-phosphorylated peptides were separated therebetween using LabChip™ 3000 system (Caliper Life Sciences, Inc., excitation wavelength: 488 nm, detection wavelength: 530 nm). Their respective amounts were measured, and the rate of phosphorylation reaction was then determined from the ratio between the amounts. The concentration at which the compound can inhibit 50% phosphorylation reaction is defined as an IC50 value (μM).
Also, known 1,2,4-triazine-6-carboxamide derivatives A, B, and C (WO2000/075113 (A: compound No. 121 and B: compound No. 154) and WO2000/076980 (C: compound No. 39)) were synthesized as control compounds. Their IC50 values (μM) were calculated in the same way as above and then compared with that of the compound of the present invention.

[1] = tested on: SU-DHL-6 cells (diffuse large-cell lymphoma cell line); assay: Cell growth inhibition test; assay type: cell-based; details: Homo sapiens, 72 h; SU-DHL-6 cells, 3 days culture, Table 96; read-out: Cell growth inhibition IC50
Procedure: The compound of the present invention was serially diluted with dimethyl sulfoxide and then added to an RPMI1640 medium containing 10% FBS. Each resulting solution was added at a concentration of 100 μl/well to the preceding SU-DHL-6 cell culture plate (final concentration of the compound: 10, 3, 1, 0.3, 0.1, 0.03, 0.01, and 0.003 μM). The cells were cultured at 37° C. for 3 days in an incubator containing 5% CO2. The cells thus cultured were left at room temperature for 30 minutes and then centrifuged at 1500 rpm for 3 minutes using a centrifuge (Hitachi Koki Co., Ltd., Himac CF7D2). A 100 μl aliquot of the supernatant was removed from each well to allow 100 μl of the cell culture solution to remain therein. This 100 μl of the remaining cell culture solution was supplemented with an equal amount of CellTiter-Glo Luminescent Cell Viability Assay (Promega KK, Cat#: G7573), and the mixture was then shaken for 1 minute using a plate mixer. The reaction solution was left in the dark for 10 minutes. Then, luminescence intensity derived from live cells of each well was measured using a microplate reader (PerkinElmer Inc., ARVOsx). […] Likewise, the IC50 values (μM) of the control compounds were also calculated and then compared with that of the compound of the present invention. Rate of cell growth inhibition(%)=(C−T)/C×100 T: luminescence intensity (count per second) of a well supplemented with the test compound C: luminescence intensity (count per second) of a well non-supplemented with the test compound

[2] = biological target: recombinant human KDR protein (Homo sapiens (Human), UniProt P35968); assay: KDR kinase activity inhibitory effect; assay type: biochemical; details: for KDR inhibitory activity: Selectivity for Syk: KDR IC50 relative to Syk IC50; for IC50: Table 97
Procedure: The purified recombinant human KDR protein used in the test is a house purified product. […] The mixture was incubated at 30° C. for 180 minutes to perform kinase reaction. […] Their respective amounts were measured, and the rate of phosphorylation reaction was then determined from the ratio between the amounts.

[3] = biological target: recombinant human Aurora B protein (Homo sapiens (Human), UniProt Q96GD4); assay: Aurora B kinase activity inhibitory effect; assay type: biochemical; details: Table 97; read-out: AuroraB inhibitory activity IC50
Procedure: (§1) The reaction solution was left standing in the dark at room temperature for 120 minutes. Then, fluorescence polarization values obtained by measurement using PHERAstar (BMG LABTECH JAPAN Ltd., excitation wavelength: 485 nm, detection wavelength: 520 nm) were used to determine the rate of phosphorylation reaction.

[4] = tested on: recombinant human Aurora B protein; assay: Aurora B kinase activity inhibitory effect; assay type: biochemical; details: Aurora B IC50 relative to Syk IC50
Procedure: as §1

Sequence of recombinant human KDR protein (P35968 20-1356): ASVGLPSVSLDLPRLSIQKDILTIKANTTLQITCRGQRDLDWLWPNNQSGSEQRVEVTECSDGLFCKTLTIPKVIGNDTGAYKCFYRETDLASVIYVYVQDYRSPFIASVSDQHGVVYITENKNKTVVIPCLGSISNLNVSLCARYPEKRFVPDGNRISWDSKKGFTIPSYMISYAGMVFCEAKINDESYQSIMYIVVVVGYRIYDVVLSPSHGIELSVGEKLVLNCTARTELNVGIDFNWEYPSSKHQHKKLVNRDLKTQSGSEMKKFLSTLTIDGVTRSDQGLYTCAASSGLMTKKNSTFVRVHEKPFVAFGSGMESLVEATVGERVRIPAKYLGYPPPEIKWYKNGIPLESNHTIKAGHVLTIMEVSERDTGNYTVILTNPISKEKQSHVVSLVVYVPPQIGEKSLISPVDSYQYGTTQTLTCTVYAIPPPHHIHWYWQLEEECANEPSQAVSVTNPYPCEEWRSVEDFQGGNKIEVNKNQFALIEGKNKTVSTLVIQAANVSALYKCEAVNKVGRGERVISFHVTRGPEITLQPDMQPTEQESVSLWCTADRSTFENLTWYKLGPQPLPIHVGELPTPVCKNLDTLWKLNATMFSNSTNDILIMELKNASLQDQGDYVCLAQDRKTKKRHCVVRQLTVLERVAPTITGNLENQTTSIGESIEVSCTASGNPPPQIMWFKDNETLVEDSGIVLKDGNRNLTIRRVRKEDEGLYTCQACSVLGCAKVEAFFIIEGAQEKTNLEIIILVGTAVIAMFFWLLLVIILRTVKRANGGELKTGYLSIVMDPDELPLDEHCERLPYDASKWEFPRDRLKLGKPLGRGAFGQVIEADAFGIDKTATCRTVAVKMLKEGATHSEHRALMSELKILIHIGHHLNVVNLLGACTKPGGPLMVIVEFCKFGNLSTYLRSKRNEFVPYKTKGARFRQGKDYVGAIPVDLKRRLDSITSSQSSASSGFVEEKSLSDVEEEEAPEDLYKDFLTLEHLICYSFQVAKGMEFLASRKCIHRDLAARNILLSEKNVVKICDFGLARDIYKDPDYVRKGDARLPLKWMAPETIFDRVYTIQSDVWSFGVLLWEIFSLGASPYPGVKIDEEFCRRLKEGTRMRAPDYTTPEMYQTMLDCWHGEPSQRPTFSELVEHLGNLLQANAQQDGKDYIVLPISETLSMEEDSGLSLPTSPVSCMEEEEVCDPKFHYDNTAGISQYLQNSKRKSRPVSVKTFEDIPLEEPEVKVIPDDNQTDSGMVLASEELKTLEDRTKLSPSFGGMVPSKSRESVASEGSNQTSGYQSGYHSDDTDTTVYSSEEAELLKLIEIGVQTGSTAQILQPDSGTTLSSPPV
Sequence of recombinant human Aurora B protein (Homo sapiens (Human), UniProt Q96GD4) (Q96GD4 whole entry): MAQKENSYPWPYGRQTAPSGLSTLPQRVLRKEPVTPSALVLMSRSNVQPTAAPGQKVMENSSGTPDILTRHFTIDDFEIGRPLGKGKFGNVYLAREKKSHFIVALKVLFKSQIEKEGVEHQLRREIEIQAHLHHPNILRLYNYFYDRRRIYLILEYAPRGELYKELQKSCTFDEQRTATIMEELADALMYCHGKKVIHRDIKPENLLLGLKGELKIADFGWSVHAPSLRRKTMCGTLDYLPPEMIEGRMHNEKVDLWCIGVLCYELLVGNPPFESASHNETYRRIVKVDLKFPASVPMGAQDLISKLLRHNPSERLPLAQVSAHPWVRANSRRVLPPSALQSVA

Structure (SMILES) | IC50 (human Syk protein; Table 95) [nM] | IC50 (human Syk protein; Table 97) [nM] | IC50 [1] [nM] | KDR inhibitory activity: Selectivity for Syk [2] | IC50 [2] [nM] | IC50 [3] [nM] | AuroraB inhibitory activity: Selectivity for Syk [4]
NC(=O)c1nnc(N[C@@H]2CCCC[C@@H]2N)nc1Nc1ccc2cn(C(F)F)nc2c1 [Example 24, 3-((1R,2S)-2-aminocyclohexylamino)-5-(2-(difluoromethyl)-2H-indazol-6-ylamino)-1,2,4-triazine-6-carboxamide] | 0.53 | 0.53 | 152 | (>20000 times) | > 10000 | > 10000 | (>20000 times)
NC(=O)c1nnc(N[C@@H]2CCCC[C@@H]2N)nc1Nc1cc2ccccc2s1 [Example 161] | 0.28 | 0.28 | 27 | (>7000 times) | > 2000 | 420 | (1500 times)
NC(=O)c1nnc(N[C@@H]2CCOC[C@@H]2N)nc1Nc1cccc2c1ccn2C1CC1 [Example 160] | 0.38 | 0.38 | 165 | (4400 times) | 1400 | 1300 | (4100 times)
